Experimental data as given in patent US10900063B2, “Measurement of Lp-PLA2 activity” (ASAHI KASEI PHARMA CORPORATION, priority 2016, dated 2021).

T1: Lp-PLA2 (Homo sapiens, UniProt Q13093)
T1 construct: Individual serum No. 16, individual serum No. 78; from tissue; host or cells: serum and plasma (individual sera, pooled sera, heparin and citrated pooled plasma)
T1 sequence (Q13093 22-441): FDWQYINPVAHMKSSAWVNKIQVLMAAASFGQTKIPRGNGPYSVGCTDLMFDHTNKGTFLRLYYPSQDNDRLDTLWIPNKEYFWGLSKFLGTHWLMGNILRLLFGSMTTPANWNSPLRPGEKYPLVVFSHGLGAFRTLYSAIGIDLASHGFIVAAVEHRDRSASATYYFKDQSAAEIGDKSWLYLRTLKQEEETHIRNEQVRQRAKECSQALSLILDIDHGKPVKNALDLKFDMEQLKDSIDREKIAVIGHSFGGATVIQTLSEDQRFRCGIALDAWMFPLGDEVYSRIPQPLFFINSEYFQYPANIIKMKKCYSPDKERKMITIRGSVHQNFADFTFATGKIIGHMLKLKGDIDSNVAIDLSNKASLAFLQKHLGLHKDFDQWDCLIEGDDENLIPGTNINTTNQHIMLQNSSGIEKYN

B1: lyso-PAF-PLD: recombinant enzyme from Thermocrispum sp. NITE BP-01628, SEQ ID NO: 9, PLD activity against lyso-PAF but not PAF (protein)
chain: MTTRTTDNPWLDARVLNMAHAGGENEAPANTLYAFKRAVKLGANMLELDVQSTKDDQLVVIHNATVDQTTDGTGKVRDLTFEQVHELDAAYNFIPGRHAVPGEPPESYPLRGVRTGEKKPPPGYQPSDFAIPKLADVLEAFPRTPINIEIKGTSDADIPSFLHNAKLLARLLKKTGRTDFIVTSFNDLAVAKFHLLAPDIPIAPGMAGLAAYFLLGVKPMHGTVALQIPVRYQGLEIATPEFIRRAHADGYAVHVWFSGTAPDDEATYNRIIDSCADGLMPAYPALLERILDERGIERPGRPGVDPCG

Assays:
[1] = neutral pH; cited from earlier work
Lp-PLA2 [2] = target: T1, Lp-PLA2; assay: Effects of coexisting substances, PLAC Test; assay type: biochemical; conditions: for Lp-PLA2 activity value / ΔmAbs/min: coexisting substance added 1:9 to pooled serum J042; for measurement value as percentage of sample with added water (100%): pooled serum J042 plus coexisting substance vs J042 + water
Excerpt: (§1) The reagent compositions were the same as in Example 17.
(§2) The absorbance change values per minute (ΔmAbs/min) and activity values (nmol/min/mL and U/L) with each kind of reagent are shown in Tables 43 to 45. Given 100% as the measurement value of the sample with the added water, the measurement values for the other samples are shown as percentages.

Lp-PLA2 [3] = target: T1, Lp-PLA2; assay: Effects of coexisting substances, reagents of invention; assay type: biochemical; conditions: for measurement value as percentage of sample with added water: J042 + water = 100%, concentrations as printed in the sample names; for Lp-PLA2 activity value / absorbance change per minute: pooled serum J042 mixed 9:1 with: Bil-C 20 mg/dL, Bil-F 20 mg/dL, hemolytic Hb 500 mg/dL, chyle 1400 FTU, Intralipos 1%, ascorbic acid 50 mg/dL
Excerpt: as §1, §2

Lp-PLA2 [4] = target: T1, Lp-PLA2; assay: Effects of coexisting substances, Lp-PLA2 FS; assay type: biochemical; conditions: for Lp-PLA2 activity value / ΔmAbs/min: coexisting substance added 1:9 to pooled serum J042; for measurement value as percentage of sample with added water (100%): pooled serum J042 plus coexisting substance vs J042 + water
Excerpt: as §1, §2

[5] = Specificity of recombinant lyso-PAF-PLD: PLD activity against PAF; assay type: biochemical; conditions: 0 to 0.5 mM PAF (C16); […] enzyme in R2
Protocol: (§3) To investigate the specificity of the recombinant lyso-PAF-PLD purified in Reference Example 3, activity against PAF(C16) and lyso-PAF(C16) was studied. The reagent compositions are as follows.
(§4) 5 μL samples containing PAF(C16) or lyso-PAF(C16) at concentrations of 0, 0.1, 0.2, 0.3, 0.4 or 0.5 mM were each incubated for 5 minutes at 37° C. with 15 μL of the R1 reagent (measuring points 1 to 15), after which 50 μL of the R2 reagent was added and reacted for 5 minutes (measuring points 16 to 31).

[6] = Specificity of recombinant lyso-PAF-PLD: PLD activity against lyso-PAF; assay type: biochemical; conditions: 0 to 0.5 mM lyso-PAF (C16); […] enzyme in R2
Protocol: as §3, §4

[7] = Thermal stability test of lyso-PAF-PLD (residual activity); assay type: physicochemical; conditions: incubated 60 minutes in 20 mM Tris-HCl (pH 7.5)
Protocol: The purified lyso-PAF-PLD was incubated for 60 minutes at different temperatures in a 20 mM Tris-HCl (pH 7.5) solution, and residual activity was investigated with the following reaction solution. C18(Plasm) LPC (Product No. 852465P, Avanti Polar Lipids, Inc.) was used as the substrate.
50 μL of the reaction solution was pre-incubated for 5 minutes at 37° C., 5 μL of the enzyme solution was added, and an enzyme reaction was performed for 1 minute at […]. 200 μL of the color developing solution was then added and reacted for 10 minutes at 37° C., after which absorbance was measured at 550 nm. The activity value was calculated according to the following formula.

Molecule	water solubility [1]	Lp-PLA2 activity value (Lp-PLA2 [2]) [nmol/min/mL]	ΔmAbs/min (Lp-PLA2 [2])	measurement value as percentage of sample with added water (100%) (Lp-PLA2 [2]) [%]	measurement value as percentage of sample with added water (Lp-PLA2 [3]) [%]	Lp-PLA2 activity value (Lp-PLA2 [3]) [nmol/min/mL]	absorbance change per minute (Lp-PLA2 [3])	Lp-PLA2 activity value (Lp-PLA2 [4]) [U/L]	ΔmAbs/min (Lp-PLA2 [4])	measurement value as percentage of sample with added water (100%) (Lp-PLA2 [4]) [%]	PLD activity against PAF [5]	PLD activity against lyso-PAF [6]	thermal stability (residual activity) [7]
CCCCCCCCCCCCCC(=O)OCC(COP(=O)([O-])OCC[N+](C)(C)C)OC(=O)CCC(=O)Oc1ccc([N+](=O)[O-])cc1 (stereo not shown) [1-myristoyl-2-(4-nitrophenylsuccinyl)phosphatidylcholine]	poor water solubility at neutral pH values	–	–	–	–	–	–	–	–	–	–	–	–
C=CC1=C(C)/C(=C/c2[nH]c(Cc3[nH]c(/C=C4\NC(=O)C(C)=C4C=C)c(C)c3CCC(=O)O)c(CCC(=O)O)c2C)NC1=O [Bil-F]	–	145.5	188.4 ΔmAbs/min	105	101	31.3	22.1 ΔmAbs/min	351.0	29.4 ΔmAbs/min	102	–	–	–
O=C1O[C@H]([C@@H](O)CO)C(O)=C1O [ascorbic acid, L(+)-Ascorbic acid]	–	138.1	181.0 ΔmAbs/min	99	96	29.6	20.9 ΔmAbs/min	343.5	28.8 ΔmAbs/min	100	–	–	–
B1	–	–	–	–	–	–	–	–	–	–	not against PAF	exhibits PLD activity only against lyso-PAF	not inactivated by storage at 20 to 60 °C
